Data from paper PMC5958115, “A novel small molecule chaperone of rod opsin and its potential therapy for retinal degeneration” (Nature Communications, 2018).

What was measured:
[1] = target: bovine isorhodopsin (rod opsin regenerated with 9-cis-retinal), photoactivated (bovine) (UniProt P02699)
[2] = target: bovine rod opsin in ROS disc membranes (bovine) (UniProt P02699)
mouse P23H-opsin mutant = mouse P23H-opsin mutant (Mus musculus, UniProt P15409, P23H); assay: β-Gal fragment complementation assay: rescue of P23H opsin transport from ER to plasma membrane, U2OS(PLC-EA/P23H-PK) cells; type: cell-based; settings: for β-Gal fragment complementation assay Activity score (%) Max (Exp) / β-Gal fragment complementation assay Activity score (%) Max (fit) / Efficacy: 24 h, 5 µM 9-cis-retinal = 100%; for β-Gal fragment complementation assay Activity score (%) Max (Exp): experimental maximum; for β-Gal fragment complementation assay Activity score (%) Max (fit) / Efficacy: from curve fitting; for EC50: 24 h preincubation, activity standardized to 5 µM 9-cis-retinal as 100%, Hill fit, read-out: β-Gal fragment complementation assay Activity score (%) EC50
Excerpt: U2OS(PLC-EA/P23H-PK) cells. A U2OS stable cell line was generated by DiscoveRx, Inc. (Fremont, CA, USA) for the β-Gal fragment complementation assay used in the small-molecule HTS for rescue of P23H-opsin transport. U2OS cells that continually express P23H-PK and PLC-EA fusion proteins were generated. Briefly, this small subunit of β-Gal (PK fragment) was fused to the C-terminal of the mouse P23H-opsin mutant, while the large EA fragment, a subunit of β-Gal, was fused with PLC, a plasma membrane-anchored peptide. Both constructs were subcloned by DicoveRx, Inc. and transferred into U2OS cells by viral infections. Positive clones were selected under treatment with hygromycin and geneticin.
Briefly, U2OS(PLC-EA /P23H-PK) cells were suspended in assay medium at 3 × 10^5 cells mL^−1. The cell suspension was dispensed into 384-well plates (Greiner Bio-one, Monroe, NC, USA) at 20 µL per well, with a Multidrop dispenser (Thermo Scientific, Waltham, MA, USA). Plates with cells then were centrifuged at 200×g for 15 s before incubation at 37 °C with 5% CO2. Plates were removed 24 h later for treatment with tested compounds. A total of 248 plates containing 79,080 compounds from three small-molecule libraries were paired with an equal number of assay plates with cultured cells. Owing to a limited capacity, these plates were assayed in seven batches. An average of 56.3 nL of 10 mM compound in DMSO was dispensed into each well from column 3 to 22 of paired assay plates using a 50 nL 384-pintool system, such that the final concentration of each compound was 22.52 µM on average. […] Each assay plate was shaken for 5 s before further incubation at 37 °C with 5% CO2. After 24 h, assay plates were removed, and each well was incubated with 25 µL of 1× Gal-Screen assay buffer (1:24 substrate-buffer ratio). Assay plates were incubated in the dark for 60–90 min, and luminescence was read from each assay plate with an Envision microplate reader (PerkinElmer) during a 0.1 s per well integration time. The mean and s.d. of readouts in column 2 of each plate were calculated as Mean0% and SD0%, whereas the average and s.d. of readouts in column 23 were calculated as Mean100% and SD100%. Eq. 1: Activity scores (%) = (RLUcp − Mean0%)/(Mean100% − Mean0%) × 100%, where RLUcp is the relative luminescence unit derived for cells treated with a compound. Eq. 2: Z′-factor = 1–3 × (SD0% + SD100%)/(Mean100% − Mean0%)[32]; Eq. 3: signal-to-background (S/B) ratio = Mean100%/Mean0%. Activities of all tested compounds were registered with their compound ID by GeneData Screener (Genedata, Basel, Switzerland) and Pipeline Pilot software (Accelrys, San Diego, CA, USA). Hits, cherry-picked from a separate stock dose-dependent activity test, were selected with an activity score cutoff at 20%. Activity of each hit was tested again with the β-Gal fragment complementation assay in a 10-dose series with each dose tested in triplicate. The 10 doses tested were 80, 40, 20, 10, 5, 2.5, 1.25, 0.625, 0.313, and 0.156 µM. Dose-dependent curves of each hit compound were fitted with GeneData and Origin software.
Detailed synthetic steps are described in Supplementary Note and Supplementary Fig. 9. […] YC-002-YC-021 were purchased from commercial vendors including Enamine LLC (Monmouth Jct., NJ, USA), Matrix Scientific (Columbia, SC, USA) and Tokyo Chemical Industry Co., Ltd. (Portland, OR, USA). […] Activities of YC compounds were tested with the β-Gal fragment complementation assay, as described in a prior section. All YC compounds were tested at 10 doses, each in triplicate: 80, 40, 20, 10, 5, 2.5, 1.25, 0.625, 0.313, and 0.156 µM.

mouse P23H opsin = target: T1, mouse P23H opsin (Mus musculus, UniProt P15409, P23H); assay: High-content imaging analysis of P23H opsin immunostaining in NIH3T3-(P23H opsin/GFP) cells; type: cell-based; settings: ratio of P23H rod opsin fluorescence on plasma membrane to whole cell; for EC50: read-out: Immunostaining HCS MEM-Total ratio EC50
T1 construct: expressed in transfected cells
Description: To characterize the effect of active compounds on the localization of P23H-mutant opsin in mammalian cells, an image-based assay was used with cells immunostained for WT or P23H-mutant opsin protein[18]. Briefly, NIH3T3-(P23H opsin/GFP) or NIH3T3-(WT-opsin/GFP) cells were seeded at 5000 cells per well in a 384-well cell-carrier plate (PerkinElmer) and incubated at 37 °C with 5% CO2 for 2 h. Cells were treated with compounds as described for the β-Gal fragment complementation assay and incubated in assay medium for 24 h. The assay medium then was aspirated, and cells were fixed with 4% paraformaldehyde at 20 µL per well for 20 min at RT. Cells were immunostained in one of two ways: cell membranes were either permeabilized with 0.1% Triton X-100 for 15 min or left intact and then were incubated with 10% goat serum (Life Technologies). To detect opsin on the cell plasma membrane only, intact cells were immunostained with 20 µL per well of 20 µg mL^−1 B6-30 anti-rhodopsin antibody that recognizes the N-terminal epitope on the extracellular side of rhodopsin. To detect total opsin, cells were permeabilized with Triton X-100 and immunostained with 50 µg mL^−1 1D4 anti-rhodopsin antibody specific for the C-terminal epitope on the intracellular side of rhodopsin. Opsin immunostaining was visualized by incubating cells with 5 µg mL^−1 Cy3-conjugated goat anti-mouse IgG antibody. Three washes with phosphate-buffered saline (PBS: 10 mM Na2HPO4, 1.8 mM KH2PO4, pH 7.4, 137 mM NaCl, and 2.7 mM KCl) were performed between each step of incubation with antibody. In the last wash with PBS, DAPI was added to each well at 300 nM. Fluorescence images were obtained with the Operetta High Content Imaging System (PerkinElmer) using a ×20 long objective. Five fields were taken of each well for cell images using three channels for fluorescence: GFP (100 ms), Cy3 (300 ms), and DAPI (50 ms). Images were analyzed with Acapella software from the Columbus data storage and analysis system (PerkinElmer)[18]. For cells immunostained with opsin on the non-permeabilized cell membrane only, an average of total fluorescence intensity of Cy3 per cell was used to quantify opsin in each well of the 384-well plate. For cells immunostained with opsin in permeabilized whole cells, an average ratio of Cy3 intensity on the cell plasma membrane (PM) to that of the entire cell (opsin ratio PM-to-total) was calculated for each well of a 384-well plate to quantify opsin transport to the plasma membrane. The plasma membrane was defined within ± 5% of the cell border.

P23H opsin = target: T2, P23H opsin (Mus musculus, UniProt P15409, P23H); assay: Immunoblot of P23H opsin glycosylation in NIH3T3 cell lysates; type: cell-based; set-up: key to Improved glycosylation: n = no; y = yes; settings: P23H opsin
T2 construct: expressed in transfected cells
Description: NIH3T3-(P23H opsin/GFP) or NIH3T3-(WT-opsin/GFP) cells were seeded in a 48-well plate (Corning Costar) at 3.2 × 10^5 cells per well and incubated at 37 °C with 5% CO2 for 2 h. One hundred-µL of assay medium containing a compound at 5× its final concentration was added to each well. The plate was gently shaken for 5 s before further incubation at 37 °C with 5% CO2 for 24 h. The assay medium then was aspirated, and cells were lysed with 100 µL per well PBS containing 0.1% Triton X-100 and complete protease inhibitor cocktail (Roche, Basel, Switzerland) followed by sonication for 3 s. Protein concentrations were determined with the Bradford assay. For PNGaseF catalyzed deglycosylation, 3 µL of PNGaseF (1500 U, NEB) was added to the cell lysate and the mixture was incubated at room temperature for 1 h before immunoblotting. For NIH3T3-(P23H opsin/GFP) cells, 15 µg of total protein were loaded per well onto an SDS-polyacrylamide gel; whereas for NIH3T3-(WT-opsin/GFP) cells, 5 µg of total protein was loaded per well. Opsin protein was immunostained with 0.2 μg mL^−1 horseradish peroxidase-conjugated 1D4 anti-rhodopsin antibody. Band intensities were measured with ImageJ software (http://imagej.nih.gov/ij/; National the Institutes of Health, Bethesda, MD, USA) and normalized to a glyceraldehyde 3-phosphate dehydrogenase (GAPDH) loading control. Full scans of immunoblotted membranes are shown in Supplementary Fig. 8.

Sequence of Gt (P04695 whole entry, looked up): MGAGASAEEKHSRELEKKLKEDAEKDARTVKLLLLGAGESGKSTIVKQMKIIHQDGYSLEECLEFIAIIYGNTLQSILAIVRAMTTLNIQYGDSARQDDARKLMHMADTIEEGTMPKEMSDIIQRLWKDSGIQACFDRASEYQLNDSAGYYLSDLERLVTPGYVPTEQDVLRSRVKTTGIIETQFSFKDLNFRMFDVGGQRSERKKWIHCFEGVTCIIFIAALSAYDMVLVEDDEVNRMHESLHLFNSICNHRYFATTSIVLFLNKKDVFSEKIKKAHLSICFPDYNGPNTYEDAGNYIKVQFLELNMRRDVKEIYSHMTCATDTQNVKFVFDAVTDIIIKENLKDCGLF
Sequence of bovine rod opsin in ROS disc membranes (bovine) (P02699 whole entry, the tested form may be a part): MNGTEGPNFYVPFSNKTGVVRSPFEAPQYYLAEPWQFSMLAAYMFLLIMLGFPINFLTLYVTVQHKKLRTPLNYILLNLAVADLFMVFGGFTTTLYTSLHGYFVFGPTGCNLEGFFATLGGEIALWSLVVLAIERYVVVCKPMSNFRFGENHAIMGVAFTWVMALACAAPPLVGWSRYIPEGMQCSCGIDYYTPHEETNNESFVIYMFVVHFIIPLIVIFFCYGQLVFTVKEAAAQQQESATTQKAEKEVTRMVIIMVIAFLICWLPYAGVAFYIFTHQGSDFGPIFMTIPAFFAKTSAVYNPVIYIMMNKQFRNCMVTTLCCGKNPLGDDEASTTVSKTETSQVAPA
Sequence of bovine isorhodopsin (rod opsin regenerated with 9-cis-retinal), photoactivated (bovine) (P02699 whole entry): as the sequence (P02699 whole entry, the tested form may be a part) above

Molecule	initial rate of Gt activation upon illumination (intrinsic Gtα fluorescence after addition of 300 µM GTPγS), isorhodopsin regenerated with 40 µM 9-cis-retinal alone [1]	initial rate of Gt activation upon illumination (intrinsic Gtα fluorescence after addition of 300 µM GTPγS), isorhodopsin regenerated with 40 µM 9-cis-retinal and 40 µM YC-001 together [1]	initial rate of Gt activation (intrinsic Gtα fluorescence after addition of 300 µM GTPγS), opsin membranes treated with 40 µM YC-001 [2]	initial rate of Gt activation (intrinsic Gtα fluorescence after addition of 300 µM GTPγS), opsin membranes treated with 40 µM YC-014 [2]	initial rate of Gt activation (intrinsic Gtα fluorescence after addition of 300 µM GTPγS), opsin membranes treated with DMSO [2]	β-Gal fragment complementation assay Activity score (%) Max (Exp) (mouse P23H-opsin mutant) [%]	β-Gal fragment complementation assay Activity score (%) Max (fit) / Efficacy (mouse P23H-opsin mutant) [%]	EC50 (mouse P23H-opsin mutant) [µM]	Immunostaining HCS MEM-Total ratio Max (fit) (mouse P23H opsin)	EC50 (mouse P23H opsin) [µM]	Improved glycosylation (P23H opsin)
Gt (from UniProt P04695 1-350) (complex)	-4.6	-4.9	-6.1	-5.7	-5.3	–	–	–	–	–	–
O=C(NCCCOc1cccc2cccnc12)c1cc(-c2ccccc2)on1 [Compound F5875-0200]	–	–	–	–	–	31.8	51.6	25	0.041	6.2	n
O=C(NCCCn1cccc1)c1cc(-c2ccccc2)on1 [Compound F5937-0207]	–	–	–	–	–	32.8	37.3	8.38	0.021	1.33	n
